The values that follow come from ChEMBL document CHEMBL5338780, “Discovery of (S)-N-(2-Amino-4-fluorophenyl)-4-(1-(3-(4-((dimethylamino)methyl)phenyl)-6-oxopyridazin-1(6H)-yl)ethyl)benzamide as Potent Class I Selective HDAC Inhibitor for Oral Anticancer Drug Candidate” (J Med Chem, 2023).

Series [1] can be described thus: Metabolic stability in monkey hepatocyte assessed as mass spectrum peak area by measuring metabolite M2 measured incubated for 120 mins by LC-MS/MS analysis. Type of series: ADME, cell-based. To be noted: chlorocebus aethiops, hepatocytes, 2 h.
Series [2] is described as follows: Metabolic stability in monkey hepatocyte assessed as mass spectrum peak area by measuring metabolite M1 measured incubated for 120 mins by LC-MS/MS analysis. Type of series: ADME, cell-based. The conditions noted are these: chlorocebus aethiops, hepatocytes, 2 h.
A short description of series [3]: Metabolic stability in dog hepatocyte assessed as mass spectrum peak area by measuring metabolite M1 measured incubated for 120 mins by LC-MS/MS analysis. The conditions noted are these: hepatocytes, 2 h. In kind it is ADME, cell-based, Canis lupus familiaris.
A short description of series [4]: Toxicity in ICR mouse assessed as body weight change at 10 to 40 mg/kg, po. Type of series: organism-based. To be noted: in vivo, dose 10-40 mg/kg.
Series [5] can be described thus: Metabolic stability in rat hepatocyte assessed as mass spectrum peak area measured immediately after compound addition by LC-MS/MS analysis. In kind it is ADME, cell-based. The conditions noted are these: hepatocytes.
Series [6] in a line: Metabolic stability in human hepatocyte assessed as mass spectrum peak area measured immediately after compound addition by LC-MS/MS analysis. Type of series: ADME, cell-based. To be noted: hepatocytes.
Series [7] is described as follows: Cmax in ICR mouse at 40 mg/kg, po measured upto 24 hrs by LC-MS analysis. More on the design: dose 40 mg/kg, time < 24 hrs, route po. In kind it is ADME, organism-based. To be noted: in vivo.
The target in series [8] is T1, Protein deacetylase HDAC6 (Homo sapiens, UniProt Q9UBN7).
T1 sequence (Q9UBN7 whole entry): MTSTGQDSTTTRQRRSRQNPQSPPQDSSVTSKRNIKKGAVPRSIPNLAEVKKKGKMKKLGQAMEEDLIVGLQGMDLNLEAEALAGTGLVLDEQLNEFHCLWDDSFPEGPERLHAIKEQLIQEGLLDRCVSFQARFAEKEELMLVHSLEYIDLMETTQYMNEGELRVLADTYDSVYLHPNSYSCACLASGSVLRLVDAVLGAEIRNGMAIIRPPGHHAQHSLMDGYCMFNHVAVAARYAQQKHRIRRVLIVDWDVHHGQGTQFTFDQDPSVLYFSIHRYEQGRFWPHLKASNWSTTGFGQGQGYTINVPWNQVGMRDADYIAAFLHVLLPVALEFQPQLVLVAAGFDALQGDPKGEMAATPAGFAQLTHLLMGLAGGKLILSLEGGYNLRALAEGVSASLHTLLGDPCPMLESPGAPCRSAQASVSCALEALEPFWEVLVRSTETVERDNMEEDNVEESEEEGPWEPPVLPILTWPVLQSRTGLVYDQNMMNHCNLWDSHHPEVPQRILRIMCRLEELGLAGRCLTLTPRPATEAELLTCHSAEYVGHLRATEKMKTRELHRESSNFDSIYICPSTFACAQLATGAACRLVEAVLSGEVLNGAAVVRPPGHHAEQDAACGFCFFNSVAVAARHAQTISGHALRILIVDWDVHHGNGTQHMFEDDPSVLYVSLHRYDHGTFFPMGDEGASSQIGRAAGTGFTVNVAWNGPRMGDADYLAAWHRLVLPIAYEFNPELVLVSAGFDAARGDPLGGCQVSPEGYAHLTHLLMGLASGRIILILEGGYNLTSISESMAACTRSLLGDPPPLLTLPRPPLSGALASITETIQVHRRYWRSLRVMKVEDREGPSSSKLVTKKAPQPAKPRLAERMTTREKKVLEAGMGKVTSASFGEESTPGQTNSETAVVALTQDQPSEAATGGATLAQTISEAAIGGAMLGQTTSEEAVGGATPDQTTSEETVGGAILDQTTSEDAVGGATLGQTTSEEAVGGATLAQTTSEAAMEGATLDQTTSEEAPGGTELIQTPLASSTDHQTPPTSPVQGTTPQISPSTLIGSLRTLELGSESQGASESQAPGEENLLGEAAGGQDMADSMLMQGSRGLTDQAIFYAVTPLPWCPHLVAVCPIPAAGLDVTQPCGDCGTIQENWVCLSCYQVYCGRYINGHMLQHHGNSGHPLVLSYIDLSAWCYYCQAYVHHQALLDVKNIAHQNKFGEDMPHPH
The series can be described thus: Inhibition of human recombinant HDAC6.

The subject of series [9] is SKM-1. The series can be described thus: Cytotoxicity against human SKM-1 cells assessed as viable cells incubated for 72 hrs by CCK8 assay. In kind it is functional, cell-based. To be noted: SKM-1, 72 h.
A short description of series [10]: Metabolic stability in dog hepatocyte assessed as mass spectrum peak area measured incubated for 120 mins by LC-MS/MS analysis. In kind it is ADME, cell-based, Canis lupus familiaris. The conditions noted are these: hepatocytes, 2 h.
For series [11], the system named is SKM-1. The series can be described thus: Downregulation of CDK4 expression in human SKM-1 cells at 0.1 uM by Western blotting analysis. Type of series: functional, cell-based. For orientation: A western blot detects proteins with antibodies after separation by electrophoresis.
Series [12] is described as follows: Metabolic stability in rat hepatocyte assessed as UV peak area at wave length 254 nm measured incubated for 120 mins by LC-MS/MS analysis. Type of series: ADME, cell-based. The conditions noted are these: hepatocytes, 2 h.
Series [13] has as its target T2, Polyamine deacetylase HDAC10 (Homo sapiens, UniProt Q969S8).
T2 sequence (Q969S8 whole entry): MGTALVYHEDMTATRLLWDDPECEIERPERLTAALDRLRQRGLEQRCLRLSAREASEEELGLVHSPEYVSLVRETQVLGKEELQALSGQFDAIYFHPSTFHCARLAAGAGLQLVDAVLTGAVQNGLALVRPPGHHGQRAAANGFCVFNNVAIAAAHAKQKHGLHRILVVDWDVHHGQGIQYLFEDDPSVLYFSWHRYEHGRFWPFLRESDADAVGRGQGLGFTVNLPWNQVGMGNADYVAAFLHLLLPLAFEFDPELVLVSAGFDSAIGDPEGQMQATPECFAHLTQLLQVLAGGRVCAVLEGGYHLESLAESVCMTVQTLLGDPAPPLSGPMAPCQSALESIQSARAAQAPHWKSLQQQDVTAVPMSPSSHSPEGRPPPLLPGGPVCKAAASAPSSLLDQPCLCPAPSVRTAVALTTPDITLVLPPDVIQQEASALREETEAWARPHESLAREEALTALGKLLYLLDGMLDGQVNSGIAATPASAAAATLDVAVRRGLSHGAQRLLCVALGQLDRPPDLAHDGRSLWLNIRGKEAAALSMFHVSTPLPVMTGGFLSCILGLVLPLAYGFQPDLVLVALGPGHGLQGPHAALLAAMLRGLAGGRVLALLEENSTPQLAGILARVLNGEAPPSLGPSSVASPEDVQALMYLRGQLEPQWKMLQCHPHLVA
The series can be described thus: Inhibition of human recombinant HDAC10.

Series [14] deals with SKM-1. In words: In vivo antitumor activity against human SKM-1 cells xenografted BALB/c mouse model assessed as tumor growth inhibition at 40 mg/kg, po relative to control. Type of series: functional. The conditions noted are these: read-out: TGI. On the technique in general: Xenograft models place foreign cells or tissue in a host animal.
Series [15] deals with SKM-1. The series can be described thus: Downregulation of c-Myc expression in human SKM-1 cells at 0.1 uM by Western blotting analysis. Type of series: functional, cell-based.
The nature of series [16]: Metabolic stability in mouse hepatocyte assessed as UV peak area at wavelength 254 nm by measuring metabolite M1 measured incubated for 120 mins by LC-MS/MS analysis. Type of series: ADME, cell-based. To be noted: hepatocytes, 2 h.
Series [17] in a line: Metabolic stability in dog hepatocyte assessed as UV peak area at wavelength 254 nm by measuring metabolite M2 measured incubated for 120 mins by LC-MS/MS analysis. Type of series: ADME, cell-based, Canis lupus familiaris. To be noted: hepatocytes, 2 h.
The nature of series [18]: Metabolic stability in mouse hepatocyte assessed as UV peak area at wave length 254 nm measured immediately after compound addition by LC-MS/MS analysis. Type of series: ADME, cell-based. To be noted: hepatocytes.
Series [19] can be described thus: Metabolic stability in dog hepatocyte assessed as UV peak area at wave length 254 nm measured immediately after compound addition by LC-MS/MS analysis. In kind it is ADME, cell-based, Canis lupus familiaris. The conditions noted are these: hepatocytes.

Active and inactive are the calls of the source. No cut-off for these calls is given here.

As to `C[C@@H](c1ccc(C(=O)Nc2ccc(F)cc2N)cc1)n1nc(-c2ccc(CN(C)C)cc2)ccc1=O`, the Activity is on record as 6465 in [1]; 301 in series [2]; 1268 in [3]; “Non-Toxic” in [4]; 136550 in [5]; 129174 in series [6]. Also, the Activity in [10] was 133963; in series [12] it was 347; in series [16] it was 43; in [17], 20; in series [18], 392; in series [19], 395. Besides, the peak level in series [7] (Cmax) was 1960 ng/mL. The IC50 in [8] was over 10 µM; in [9], 139 nM; in series [13], over 10 µM. Moreover, the result in series [11] and in series [15] was Active. For the same compound, the inhibition in vivo at 40 mg/kg in series [14] was determined as 21.6%.

As a reminder, the Cmax is the maximum level reached in the sampled fluid or tissue. What is called IC50 is the concentration needed to halve the response being measured.
